# From publication PMC8568133, “Evaluation of bisphenylthiazoles as a promising class for combating multidrug-resistant fungal infections” (PLoS ONE, 2021)
# Like-named read-outs stand apart in the source and are kept apart here.
# Experiments:
# Format in all cases: cell-based
# [1] = system: Lactobacillus crispatus HM-370; test: Broth microdilution MIC against normal human microbiota; settings: HM370; Lactobacillus crispatus HM-370; read-out: MIC
# Method in brief: (§1)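 Inoculum of about 5 x 10^5 CFU/mL in MRS broth, with compounds serially diluted in triplicate. MICs read after 48 hours at 37 °C; three independent repeats.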
# [2] = system: Lactobacillus casei ATCC-334; test: as above; settings: Lacticaseibacillus casei, ATCC334; Lactobacillus casei ATCC-334; read-out: MIC
# Method in brief: as §1
# [3] = system: Lactobacillus gasseri HM-400; test: as above; settings: HM400; Lactobacillus gasseri HM-400; read-out: MIC
# Method in brief: as §1
# [4] = system: Candida krusei; test: Antifungal broth microdilution MIC (50% growth inhibition) and MFC; settings: Pichia kudriavzevii; for MIC: read-out: MIC
# Method in brief: (§2)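 CLSI broth microdilution, clinical isolates, 128–0.06 μg/mL serial dilutions, triplicates. MFC: no-growth wells plated on YPD agar, 37 °C 24 h, 99.9% kill. Three independent repeats.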
# [5] = system: Candida glabrata; test: as above; settings: Nakaseomyces glabratus; for MIC: read-out: MIC
# Method in brief: as §2
# [6] = system: Candida auris; test: as above; settings: for MIC: read-out: MIC
# Method in brief: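 Clinical isolates were tested in triplicate by CLSI broth microdilution over 128–0.06 μg/mL. MIC was the lowest concentration giving 50% growth inhibition after 35 °C incubation, 24 h for Candida, 48 h for Cryptococcus. For MFC, wells without growth were plated on YPD agar, 37 °C for 24 hours; MFC meant 99.9% growth reduction.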
# [7] = ATCC66032, C. glabrata ATCC 66032
structure (smiles),measurement,setting,value
"Cc1nc(-c2ccc(-c3ccccc3)cc2)sc1-c1nnc(N[C@@H]2CCCC[C@@H]2N)o1 (relative stereo) [Compound 17, cis-N-{5-[2-((1,1’-Biphenyl)-4-yl)-4-methylthiazol-5-yl]-1,3,4-oxadiazol-2-yl}cyclo-hexane-1,2-diamine]",MIC,[1],> 128 µg/mL
same,MIC,[2],128 µg/mL
same,MIC,[3],128 µg/mL
same,MIC,"[4]; ATCC34135, C. krusei ATCC 34135",1 µg/mL
same,MFC,[4]; C. krusei CAB 396420,> 64 µg/mL
same,MIC,[4]; C. krusei CAB 396420,1 µg/mL
same,MFC,[5]; [7],> 64 µg/mL
same,MIC,[5]; [7],0.5 µg/mL
same,MFC,[5]; C. glabrata ATCC MYA-2950,> 64 µg/mL
same,MIC,[5]; C. glabrata ATCC MYA-2950,0.5 µg/mL
same,MFC,[6]; Candida auris 390,>64 µg/mL
same,MIC,"[6]; Candidozyma auris, C. auris 381",1 µg/mL
same,MIC,"[6]; Candidozyma auris, C. auris 382",2 µg/mL
same,MIC,"[6]; Candidozyma auris, C. auris 383",1 µg/mL
same,MIC,"[6]; Candidozyma auris, C. auris 384",1 µg/mL
same,MIC,"[6]; Candidozyma auris, C. auris 385",2 µg/mL
same,MIC,"[6]; Candidozyma auris, C. auris 386",1 µg/mL
same,MIC,"[6]; Candidozyma auris, C. auris 387",2 µg/mL
same,MIC,"[6]; Candidozyma auris, C. auris 388",1 µg/mL
same,MIC,"[6]; Candidozyma auris, C. auris 389",2 µg/mL
same,MIC,"[6]; Candidozyma auris, C. auris 390",1 µg/mL
same,MFC,"[6]; Candidozyma auris, Candida auris 389, read-out: MFC",> 64 µg/mL
